The values that follow come from patent publication US8791143B2, “Anthranilic diamide derivatives having cyclic side-chains” (priority 2010, dated 2014).

The nature of series [1]: log P by HPLC on reversed-phase columns (EEC Directive 79/831 Annex V.A8). Type of series: physicochemical. The settings on record: for log P (second value after the slash): pH 2.7.
In series [2] the test system is caterpillars of the armyworm (Spodoptera frugiperda). In words: Spodoptera frugiperda test (SPODFR spray treatment). Type of series: in vivo. The settings on record: Spodoptera frugiperda, 168 h; for pest or weed control at 100 g/ha / pest or weed control at 500 g/ha: read-out: activity in % (caterpillars killed); for pest or weed control at 500 g/ha: application rate 500 g/ha.

The subject of series [3] is Boophilus microplus. In words: Boophilus microplus test (BOOPMI injection). Format: in vivo. The settings on record: Rhipicephalus microplus, 168 h; 20 μg/animal, injection into the abdomen, after 7 days; read-out: activity in % (no fertile eggs laid). As for the experimental part:
(§1) Solvent: dimethyl sulphoxide
The active compound solution is injected into the abdomen (Boophilus microplus), and the animals are transferred into dishes and stored in a climate-controlled room.
The activity is assessed by […] of fertile eggs. 100% means that none of the ticks has laid any fertile eggs.

Series [4] concerns Lucilia cuprina larvae. The series is described as follows: Lucilia cuprina test (LUCICU). Type of series: in vivo. The note with it: 1152 h, read-out: activity (kill in %). As for the experimental part: as §1
Vessels containing horse meat treated with the active ingredient preparation of the desired concentration are populated with about 20 Lucilia cuprina larvae.
(§2) After 48 days, the kill in % is determined.

Series [5] has as its system larvae of the mustard beetle (Phaedon cochleariae). The series is described as follows: Phaedon test (PHAECO spray treatment). The note with it: Phaedon cochleariae, 168 h, read-out: activity in % (beetle larvae killed).
In series [6] the test system is green peach aphid (Myzus persicae). In words: Myzus test (MYZUPE spray treatment). The note with it: Myzus persicae, 144 h; for pest or weed control at 100 g/ha / pest or weed control at 500 g/ha: read-out: activity in % (aphids killed). Format: in vivo.
Series [7] has as its system adult Musca domestica. The series is described as follows: Musca domestica test (MUSCDO). Type of series: in vivo. The settings on record: 1152 h, read-out: activity (kill in %). How it is done: as §1
Vessels containing a sponge treated with the active compound preparation of the desired concentration are populated with adult Musca domestica.
as §2

Where [8] appears, read: reversed-phase C18 HPLC column, pH 2.7, HPLC reversed-phase C18, acidic range pH 2.7 (HCOOH), only or first value of the cell, read-out: log P.
Where [9] appears, read: application rate 100 g/ha, after 6 days.
[10] abbreviates: application rate 100 g/ha, after 7 days.
Where [11] appears, read: application rate 500 g/ha, after 6 days.

Like-named read-outs stand apart in the source and are kept apart here.

As a reminder, the inhibition is the percentage by which the read-out fell short of the control. Higher therefore signals a response far below the control.

As for `Cc1cc(Cl)cc(C(=O)NC2COC2)c1NC(=O)c1cc(Cn2cc(Br)c(C(F)(F)F)n2)nn1-c1ncccc1Cl` [Example 24], the chromatographic logP in series [1] (pH 2.7, log P) was 3.2. Moreover, the pest or weed control at 100 g/ha in series [2] and in series [5] was 100% throughout. For the same compound, the pest or weed control at 0.02 mg in series [3] stood at 100%. Moreover, in series [4], the pest or weed control at 100 ppm was 100%.

In the case of `Cc1cc(C#N)cc(C(=O)NC2COC2)c1NC(=O)c1cc(Cn2nnc(C(F)(F)F)n2)nn1-c1ccccc1Cl` [Example 26], the chromatographic logP in series [1] (setting [8]) was determined as 2.85. In addition, the pest or weed control at 100 g/ha in series [6] (setting [9]), in series [2] (setting [10]) and in series [5] was 100% each time. The pest or weed control at 0.02 mg in series [3] was 100%. The pest or weed control at 100 ppm in series [4] (100 ppm, after 48 days) worked out at 100%; in series [7] (100 ppm, after 48 days), 80%.

On to `Cc1cc(C#N)cc(C(=O)NC2COC2)c1NC(=O)c1cc(Cn2nnc(C(F)(F)F)n2)nn1-c1c(F)cccc1F` [Example 27], for which the chromatographic logP in series [1] (setting [8]) is 2.79. Moreover, the results for the pest or weed control at 100 g/ha in series [6] (setting [9]), in series [2] (setting [10]) and in series [5] were 80%, 100% and 100%, respectively. The pest or weed control at 0.02 mg in series [3] came to 100%. The pest or weed control at 100 ppm in series [4] (100 ppm, after 48 days) is 100%. For the same compound, the pest or weed control at 20 ppm in series [7] (after 48 days) was 100%.

Take `Cc1cc(C#N)cc(C(=O)NC2CCN(Cc3ccccc3)C2)c1NC(=O)c1cc(Cn2nnc(C(F)(F)F)n2)nn1-c1ncccc1Cl` (stereo not shown) [Example 30]: in series [1] (setting [8]), the chromatographic logP was determined as 1.9. Moreover, the pest or weed control at 500 g/ha in series [6] (setting [11]), in series [2] (after 7 days) and in series [5] was 100% in each case. The pest or weed control at 0.02 mg in series [3] was determined as 100%. In series [4] (100 ppm, after 48 days), the pest or weed control at 100 ppm worked out at 100%. The pest or weed control at 20 ppm in series [7] (after 48 days) amounted to 80%.

Turning to `Cc1cc(Cl)cc(C(=O)NC2CCN(Cc3ccccc3)C2)c1NC(=O)c1cc(Cn2nnc(C(F)(F)F)n2)nn1-c1ncccc1Cl` (stereo not shown) [Example 31], the chromatographic logP in series [1] (setting [8]) came out at 2.03. Further, the pest or weed control at 500 g/ha in series [6] (setting [11]), in series [2] (after 7 days) and in series [5] was 100% in each case. The pest or weed control at 0.02 mg in series [3] came out at 100%. Further, the pest or weed control at 100 ppm in series [4] (100 ppm, after 48 days) is 100%.

Regarding `Cc1cc(Cl)cc(C(=O)NC2CCN(Cc3ccccc3)C2)c1NC(=O)c1cc(Cn2nnc(C(F)(F)C(F)(F)F)n2)nn1-c1ncccc1Cl` (stereo not shown) [Example 33], the chromatographic logP in series [1] (setting [8]) was 2.3. Further, the pest or weed control at 500 g/ha in series [2] (after 7 days) and in series [5] was 100% in each case. In series [3], the pest or weed control at 0.02 mg turned out to be 100%. The pest or weed control at 100 ppm in series [4] (100 ppm, after 48 days) is 100%.

As to `Cc1cc(C#N)cc(C(=O)NC2CCS(=O)(=O)C2)c1NC(=O)c1cc(Cn2nnc(C(F)(F)F)n2)nn1-c1ccccc1Cl` (stereo not shown) [Example 36], in series [1] (setting [8]), the chromatographic logP was 2.82. For the same compound, the inhibition at 100 g/ha in series [6] (100 g/ha, 6 d, comparison with prior art) is 100%; in series [2] (100 g/ha, 7 d, comparison with prior art), 100%. The pest or weed control at 100 g/ha in series [6] (setting [9]), in series [2] (setting [10]) and in series [5] was 100% in each case. Also, in series [3], the pest or weed control at 0.02 mg stood at 100%. The pest or weed control at 100 ppm is 100% in series [4] (100 ppm, after 48 days) and 80% in series [7] (100 ppm, after 48 days).

`Cc1cc(Cl)cc(C(=O)NC2CCS(=O)(=O)C2)c1NC(=O)c1cc(Cn2nnc(C(F)(F)C(F)(F)F)n2)nn1-c1ncccc1Cl` (stereo not shown) [Example 37]: the chromatographic logP in series [1] (setting [8]) is 3.13. Also, the pest or weed control at 500 g/ha in series [6] (setting [11]), in series [2] (after 7 days) and in series [5] was 100% each time. Besides, in series [3], the pest or weed control at 0.02 mg came out at 100%. The pest or weed control at 100 ppm in series [4] (100 ppm, after 48 days) amounted to 100%; in series [7] (100 ppm, after 48 days), 80%.

Turning to `Cc1cc(C#N)cc(C(=O)NC2CCS(=O)(=O)C2)c1NC(=O)c1cc(Cn2nnc(C(F)(F)C(F)(F)F)n2)nn1-c1ncccc1Cl` (stereo not shown) [Example 38], the chromatographic logP in series [1] (setting [8]) was 2.82. Further, the pest or weed control at 500 g/ha in series [6] (setting [11]), in series [2] (after 7 days) and in series [5] was 100% in each case. Also, the pest or weed control at 0.02 mg in series [3] was 100%. The pest or weed control at 100 ppm in series [4] (100 ppm, after 48 days) amounted to 100%; in series [7] (100 ppm, after 48 days), 100%.

For `Cc1cc(C#N)cc(C(=O)NC2CCSC2=O)c1NC(=O)c1cc(Cn2nnc(C(F)(F)C(F)(F)F)n2)nn1-c1ncccc1Cl` (stereo not shown) [Example 40], in series [1] (setting [8]), the chromatographic logP is 3.25. Also, the pest or weed control at 500 g/ha in series [2] (after 7 days) and in series [5] was 100% in each case. Moreover, the pest or weed control at 0.02 mg in series [3] worked out at 100%. In series [4] (100 ppm, after 48 days), the pest or weed control at 100 ppm came to 100%.

With `Cc1cc(Cl)cc(C(=O)N[C@@H]2CCOC2=O)c1NC(=O)c1cc(Cn2nnc(C(F)(F)F)n2)nn1-c1ncccc1Cl` [Example 42], in series [1], the “log P (second value after the slash)” value turned out to be 2.53. In series [1] (pH 2.7, log P), this compound registered a chromatographic logP of 2.84. The pest or weed control at 100 g/ha in series [6], in series [2] and in series [5] was 100% each time. Also, the pest or weed control at 0.02 mg in series [3] was 100%. Also, the figures for the pest or weed control at 100 ppm in series [4] and in series [7] were 100% and 90%, respectively.

Regarding `Cc1cc(Cl)cc(C(=O)N[C@@H]2CCOC2=O)c1NC(=O)c1cc(Cn2nnc(C(F)(F)C(F)(F)F)n2)nn1-c1ncccc1Cl` [Example 43], in series [1], the “log P (second value after the slash)” value turned out to be 2.92. The chromatographic logP in series [1] (pH 2.7, log P) was 3.21. Further, the pest or weed control at 500 g/ha in series [6] turned out to be 100%. For the same compound, the pest or weed control at 100 g/ha in series [2] and in series [5] was 100% each time. Moreover, the pest or weed control at 0.02 mg in series [3] is 100%. Moreover, the pest or weed control at 100 ppm in series [4] was 100%.

`Cc1cc(C#N)cc(C(=O)N[C@@H]2CCOC2=O)c1NC(=O)c1cc(Cn2nnc(C(F)(F)C(F)(F)F)n2)nn1-c1ncccc1Cl` [Example 44]: the chromatographic logP in series [1] (setting [8]) worked out at 2.9. The pest or weed control at 100 g/ha stood at 90% in series [6] (setting [9]), 100% in series [2] (setting [10]) and 100% in series [5]. Moreover, the pest or weed control at 0.02 mg in series [3] is 100%. For the same compound, the pest or weed control at 100 ppm in series [4] (100 ppm, after 48 days) turned out to be 100%; in series [7] (100 ppm, after 48 days), 100%.

`Cc1cc(C#N)cc(C(=O)NC2(c3cccc(C(F)(F)F)c3)CC2)c1NC(=O)c1cc(Cn2nnc(C(F)(F)F)n2)nn1-c1ncccc1Cl` [Example 65]: in series [1] (setting [8]), the chromatographic logP was 3.97. For the same compound, the pest or weed control at 100 g/ha in series [6] (setting [9]) amounted to 90%; in series [2] (setting [10]) it was 100%; in series [5], 100%. In addition, in series [3], the pest or weed control at 0.02 mg came out at 100%. The pest or weed control at 100 ppm in series [4] (100 ppm, after 48 days) worked out at 100%. The pest or weed control at 20 ppm in series [7] (after 48 days) came to 80%.

As to `Cc1cc(C#N)cc(C(=O)NCc2ccc(S(F)(F)(F)(F)F)cc2)c1NC(=O)c1cc(Cn2nnnc2C(F)(F)F)nn1-c1ncccc1Cl` [Example 69], the chromatographic logP in series [1] (setting [8]) amounted to 3.68. In addition, the pest or weed control at 100 g/ha in series [2] (setting [10]) and in series [5] was 100% throughout. Moreover, the pest or weed control at 0.02 mg in series [3] came to 100%. The pest or weed control at 100 ppm in series [4] (100 ppm, after 48 days) was determined as 100%. For the same compound, the pest or weed control at 20 ppm in series [7] (after 48 days) was determined as 80%.
